Reference: patent US20260159546A1, “PHARMACEUTICAL COMPOSITION FOR TREATING SEPSIS INCLUDING DUAL ALARMIN-RECEPTOR-SPECIFIC TARGETING PEPTIDE” (Industry-University Cooperation Foundation Hanyang …, priority 2024, published 2026)
Where two headings read alike, the source gives them in different places. Ends that are not written are not given here.

What was measured:
Assay type in all cases: cell-based, mouse
BMDMs [1] = assay: In vitro cell viability study (Quanti-Max) on BMDMs
Description: Primary bone marrow-derived macrophages (BMDMs) were isolated from female C57BL/6 mice and cultured for five to seven days in a medium supplemented with macrophage-colony stimulating factor (M-CSF) for differentiation. HEK293T cells were acquired from the American Type Culture Collection (ATCC). Both BMDMs and HEK293T cells were cultured in Dulbecco's modified Eagle's medium (DMEM, GenDEPOT Inc., USA) supplemented with 10% fetal bovine serum (FBS), penicillin (100 U/mL), and streptomycin (100 μg/mL).
BMDMs were plated on 96-well plates (SPL Life Science Co. Ltd., Republic of Korea) at a density of 2×10^4 cells/well and incubated in complete DMEM for 18 h. Thereafter, the cells were treated with various concentrations of H-T, H-R, P-T, P-M peptides, control, TMR, or TMR using Abs Lipo. After 48 h of incubation, the medium was replaced with 100 μl of DMEM and the Quanti-Max solution (10% of each media volume). After two hours of incubation at 37° C. and 5% CO2, the absorbance of the plates including the Quanti-Max solution was measured at 450 nm using the MMR SPARK® microplate reader (TECAN Group Ltd., Switzerland).

[2] = system: LPS-induced cytokine production in BMDMs; assay: Cytokine ELISA in supernatant of LPS-treated BMDMs; settings: LPS 100 ng/mL, 18 h
Text: FIG. 2. Preparation of TLR4/MD2/RAGE-interacting motifs of HMGB1 or PTX3; • (A and B) Schematic diagram of HMGB1 (A) and PTX3 (B) domains. Glutathione s-transferase (GST)-tagged truncates including the TLR4-, RAGE-, or MD2-binding domains of HMGB1 or PTX3 were constructed. […] HEK293T cells transfected with the GST-tagged constructs in combination with HA-TLR4, Myc-RAGE or His-MD2 were confirmed by GST-pulldown. Western blots of WCLs and eluates after GST-pulldown are shown, using glyceraldehyde 3-phosphate dehydrogenase (GAPDH) as a loading control in WCLs. Based on the pulldown binding results, TLR4-, MD2-, and RAGE-targeted peptides were constructed and prepared as an H-T, H-R, P-T, or P-M peptide (indicated in panels A and B); • (C) BMDMs were incubated with the H-T, H-R, P-T, or P-M peptide at the indicated concentrations for 48 h, and then cell viability was measured by a cell viability assay. […] They were immunoprecipitated with αFlag for two hours, separated by sodium dodecyl sulfate-polyacrylamide gel electrophoresis (SDS-PAGE), and evaluated by immunoblotting; • (E) Competition between rHMGB1 (top) or PTX3 (bottom) and the constructed peptides for their respective receptors. […] TNF-α, IL-6, IL-12p40, and IL-10 levels in the supernatant of the indicated peptide-treated BMDMs, along with LPS (100 ng/mL, 18 h), were determined by ELISA. […]

BMDMs [3] = assay: Cytokine ELISA in BMDMs stimulated with recombinant alarmins; settings: BMDMs treated with recombinant alarmin 2, 5 μg/mL
Text: FIG. 1. Interaction of extracellular high-mobility group protein B1 (HMGB1) and (pentraxin 3) PTX3 with toll-like receptor 4 (TLR4) or receptor for advanced glycation end products (RAGE) in murine macrophages; • (A and B) Release of HMGB1 (A) or PTX3 (B) from murine macrophages after stimulation with lipopolysaccharide (LPS). LPS-induced HMGB1 (A) or PTX3 (B) release from murine macrophages. Immunoblots (IB) for HMGB1 and PTX3 in the cell lysates in LPS-treated bone marrow-derived macrophages (BMDMs) and the supernatant at indicated time points after LPS (100 ng/ml); • (C and D) Interaction between HMGB1 (C) or PTX3 (D) with receptors thereof. HEK293T cells were transfected with constructs, and cell lysates were immunoprecipitated with a Flag-tag-specific antibody and analyzed by immunoblotting (IB) with the indicated antibodies. […] Immunoprecipitants and whole cel lysates (WCL) were analyzed by immunoblotting with the indicated antibodies; • (E) TNF-α, IL-6, IL-12p40, and IL-10 levels in the supernatant of LPS (100 ng/ml, 18 h) or recombinant alarmins (rHMGB1 or rPTX3, each (2, 5 μg/mL))-treated BMDMs determined by enzyme-linked immunosorbent assay (ELISA). The data shown represents at least three independent experiments (n≥3), and bars denote mean±SEM (****p<0.001), and significance was measured by two-way analysis of variance (ANOVA); […]

[4] = BMDMs, 48 h incubation, various concentrations

## AAYRAKGKPD [H-R]
BMDMs [1]; [4]
  viability of BMDMs: almost no impact

## ALAAVLEELR [P-M]
BMDMs [1]; [4]
  viability of BMDMs: almost no impact

## FKDPNAPKRP [H-T]
BMDMs [1]
  viability of BMDMs: almost no impact

## PAEARLTSAL [P-T]
BMDMs [1]; [4]
  viability of BMDMs: almost no impact

## TMR peptide: fusion peptide of SEQ ID NO: 2 to 5 joined by GG linkers, FKDPNAPKRPGGAAYRAKGKPDGGPAEARLTSALGGALAAVLEELR
[2]
  production of inflammatory cytokines (TNF-α, IL-6, IL-12p40): significantly reduced

## rPTX3: recombinant alarmin protein pentraxin 3 [reference compound]
BMDMs [3]
  levels of TNF-α, IL-6, IL-12p40 and IL-10: elevated levels

B1: rHMGB1: recombinant alarmin protein high-mobility group protein B1 (protein, UniProt P09429 1-215, looked up)
High mobility group protein B1: MGKGDPKKPRGKMSSYAFFVQTCREEHKKKHPDASVNFSEFSKKCSERWKTMSAKEKGKFEDMAKADKARYEREMKTYIPPKGETKKKFKDPNAPKRPPSAFFLFCSEYRPKIKGEHPGLSIGDVAKKLGEMWNNTAADDKQPYEKKAAKLKEKYEKDIAAYRAKGKPDAAKKGVVKAEKSKKKKEEEEDEEDEEDEEEEEDEEDEDEEEDDDDE
modifications: Flag tag
BMDMs [3]
  levels of TNF-α, IL-6, IL-12p40 and IL-10: elevated levels
